From patent US9155699B2, “Pulmonary delivery for levodopa” (Civitas Therapeutics, Inc., priority 2002, dated 2015)

How the values were obtained:
[1] = 120 minutes after administration
in vivo = settings: plasma

plasma level, methods of the invention compared to oral administration [1]: twice as high
concentration at 2 min (in vivo; inhaled): 5000 ng/mL
concentration at 2 min (in vivo; po): 1000 ng/mL
Structure (SMILES): N[C@@H](Cc1ccc(O)c(O)c1)C(=O)O [L-Dopa, Levodopa]
